{"source": "ChEMBL document CHEMBL1141788", "about": "“Dendridine A, a bis-indole alkaloid from a marine sponge Dictyodendrilla Species” (2005)", "assay_type_in_all_cases": "functional", "key": {"Bacillus subtilis": {"test_system": "Bacillus subtilis", "assay": "Antibacterial activity against Bacillus subtilis"}, "Micrococcus luteus": {"test_system": "Micrococcus luteus", "assay": "Antibacterial activity against Micrococcus luteus"}, "Cryptococcus neoformans": {"test_system": "Cryptococcus neoformans", "assay": "Antifungal activity against Cryptococcus neoformans"}}}
{"smiles": "NCCc1c[nH]c2c(O)cc(Br)c(-c3c(Br)cc(O)c4[nH]cc(CCN)c34)c12", "note": "[DENDRIDINE A]", "values": [{"measurement": "MIC", "setting": "Bacillus subtilis", "value": 8.3, "unit": "µg/mL"}, {"measurement": "MIC", "setting": "Micrococcus luteus", "value": 4.2, "unit": "µg/mL"}, {"measurement": "MIC", "setting": "Cryptococcus neoformans", "value": 8.3, "unit": "µg/mL"}]}
